What was measured:
[1] = Stability of GTG in buffers, UPLC-MS MRM analysis; assay type: physicochemical; details: for stability: up to 48 h
Procedure: All chromatographic analyses were carried out in a Waters Acquity UPLC system connected to a Sciex 4500 QTrap (Redwood City, Calif.). Mass spectrometric analyses were carried out in the multiple reaction monitoring (MRM) mode. Chromatographic separations were carried out in an ACQUITY BEH C18 peptide column (100*2.1 mm, 1.7 μm; Waters) connected to a guard column using a flow rate of 0.5 ml/min. Water (solvent A) and acetonitrile (solvent B) were used as eluents. To both solvents, 0.1% heptafluorobutyric acid (v/v) was added. Analyses were performed at a column temperature of 40° C. using gradient elution: 5% B (0-0.25 min) to 20% B (2 min) to 50% B (3 min) to 100% B (3.5-5 min). The column was equilibrated at 5% B for 1 min prior to the next analysis. Detection of the analytes was achieved by using full scan mode for the identification of metabolites in preparative HPLC fraction and multiple reaction monitoring for the quantitation in stability experiments. The ion source was run under the following conditions: temperature, 550° C.; ion spray voltage, 4.5 kV; curtain gas, 45 ml/min; nebulizer gas, 60 ml/min; heating gas, 60 ml/min.
To test the stability, GTG was incubated under various conditions. The following buffers were used: 0.1 M phosphate buffer pH 5, 0.1 M phosphate buffer pH 7, 0.1 M phosphate buffer pH 9 and 0.1% formic acid. 10 μM solutions of […] in each buffer were stored at 4° C., 25° C. or 37° C. for up to 48 h, respectively. Sample aliquots were directly injected to ULPC-MS for MRM analysis. For the identification of degradation products sample aliquots were analyzed using full scan mode.

[2] = system: αB-Crystallin; assay: αB-Crystallin incubated with methylglyoxal with or without GTG: covalent crosslinking and AGE levels; assay type: biochemical; details: 250 μM GTG + 250 μM MGO
Procedure: Legend: 1. αB-crystallin control, 2. αB-crystallin+250 μM GTG, 3. αB-crystallin+250 μM MGO, 4. αB-crystallin+250 μM GTG+250 μM MGO. The bar graphs are means±SD of triplicate measurements. ***p<0.0005. […] Lanes: 1. MW marker, 2. αB-crystallin standard, 3. αB-crystallin blank, 4. αB-crystallin+250 μM GTG, 5. αB-crystallin+250 μM MGO, 5. αB-crystallin+250 μM GTG and 250 μM MGO.
To test the efficacy of GTG in the inhibition of AGE production, αB-Crystallin was incubated with methylglyoxal in the presence or absence of GTG and analyzed for covalent crosslinking and AGE levels.

[3] = system: human lens cells (FHL 124); assay: FHL 124 cells: levels of GTG metabolites and α-dicarbonyls; assay type: cell-based
Procedure: FIG. 6A depicts the scheme of dehydroascorbate (DHA) degradation and formation of reactive α-dicarbonyls and AGEs. […] The bar graphs are means±SD of triplicate measurements. **p<0.005, ***p<0.0005.
Next, human lens cells (FHL 124) were incubated with dehydroascorbic acid in the presence or absence of GTG and analyzed for levels of GTG and its metabolites as well as α-dicarbonyls. […] FHL124 cells were pretreated with GTG before either DHA or MGO was added.

[4] = system: diabetic mice; assay: AGE levels in lenses and retinas of STZ-diabetic mice by UPLC-MS/MS; assay type: in vivo; details: 1 nmole/g body weight i.p. once every two days, 8 weeks; vs untreated diabetic controls
Procedure: The bar graphs are the means±SD of at least 8 measurements. *p<0.05, **p<0.005.
GTG was also tested in diabetic mice. Diabetes was induced by repeated STZ injections. GTG (1 nmole/g body weight) was injected intraperitoneally once every two days. After 8 weeks, lenses and retinas were harvested and analyzed for AGE levels by UPLC-MS/MS.

[5] = system: Mouse lenses; assay: Mouse lens stiffness (axial and equatorial strain under load); details: 1.5 mM GTG, 48 h, 37° C.; load of 2,700 mg
Procedure: Mouse lenses (6 months old) were incubated with 1.5 mM GTG for 48 h at 37° C. in serum free MEM in a CO2 incubator. Lens stiffness was measured using a set up as described previously (Cheng C, et al., Journal of visualized experiments: JoVE. 2016, (111):10.3791/ 53986). Lens stiffness was measured using a load of 2,700 mg. Axial and equatorial strains were calculated as previously described (Chen, JOVE 2016, supra).

stability ([1]; 0.1% formic acid, 10 μM, 4° C., 25° C. or 37° C.): stable at all temperatures
stability ([1]; 0.1 M phosphate buffer pH 5, 4° C.): stable
stability ([1]; 0.1 M phosphate buffer pH 5, 25° C.): stable
stability ([1]; 0.1 M phosphate buffer pH 5, 37° C.): slightly degraded
stability ([1]; 0.1 M phosphate buffer pH 7, 4° C., 25° C. or 37° C.): degraded at all temperatures
stability ([1]; 0.1 M phosphate buffer pH 9, 4° C., 25° C. or 37° C.): degraded at all temperatures
reduction of the disulfide bond during the incubation ([1]; all buffer and temperature conditions of the stability test): not observed
penetration of the plasma membrane of FHL124 cells ([3]; 50 mM GTG for 2 h): able to penetrate the plasma membrane
SMILES: CCOC(=O)CNC(=O)C(CSSCCNC(=N)N)NC(=O)CCC(N)C(=O)OCC (stereo not shown) [GTG, glutathione diethyl ester thioethylguanidine disulfide]
covalent crosslinking in αB-crystallin incubated with methylglyoxal ([2]; SDS-PAGE): significantly reduced
AGE formation (CEL levels) in αB-crystallin incubated with methylglyoxal ([2]; after acid hydrolysis): significantly reduced
intracellular conversion to glutathione and mercaptoethylguanidine ([3]; 50 mM GTG for 2 h, FHL124 cells): immediately reduced and hydrolyzed to glutathione and mercaptoethylguanidine
reactive α-dicarbonyls derived from dehydroascorbic acid ([3]; cells treated 24 h with dehydroascorbic acid, subsequent incubation with GTG): significant reduction
AGE levels in the lens [4]: lower
AGE levels in the retina [4]: lower
improvement of axial strain in comparison to control lenses [5]: 23%
improvement of equatorial strain in comparison to control lenses [5]: 72%
